# Laboratory results: US11684614B2, “Formulations of hydroxypyridonate actinide/lanthanide decorporation agents” (priority 2017, dated 2023)
# Several values for one entry are separate records, joined by “and”; a condition that tells them apart may be missing. Identical values can stand only once.
# Legend:
# [1] = Stability in gastric fluid; type: in vitro ADME
# [2] = GLP single oral dose cardiovascular assessment in beagle dogs (electrocardiogram, blood pressure); type: in vivo; settings: 37.5, 75, or 150 mg/kg single oral dose
# Description: Cardiovascular parameters in beagle dogs after a single oral administration of formulated capsules was determined in a GLP study
# Electrocardiograms and blood pressure were evaluated from 3 male and 3 female beagle dogs per dose group (0, 37.5, 75, or 150 mg/kg) at pretest, 1 and 4 hours post-dose, and 7 days after a single oral dose of formulated material (TABLE 8.1). […] Instances of increased or decreased blood pressure (hypertension or hypotension) in various dogs were considered sporadic or due to stress, excitement, or struggling during the time of recording and not test article related. In summary, electrocardiogram and blood pressure assessments in beagle dogs raised no cardiovascular safety concerns.
# [3] = target: T1, CYP2B6 (Homo sapiens, UniProt P20813); assay: CYP inhibition; type: in vitro ADME
# T1 sequence (P20813 1-491): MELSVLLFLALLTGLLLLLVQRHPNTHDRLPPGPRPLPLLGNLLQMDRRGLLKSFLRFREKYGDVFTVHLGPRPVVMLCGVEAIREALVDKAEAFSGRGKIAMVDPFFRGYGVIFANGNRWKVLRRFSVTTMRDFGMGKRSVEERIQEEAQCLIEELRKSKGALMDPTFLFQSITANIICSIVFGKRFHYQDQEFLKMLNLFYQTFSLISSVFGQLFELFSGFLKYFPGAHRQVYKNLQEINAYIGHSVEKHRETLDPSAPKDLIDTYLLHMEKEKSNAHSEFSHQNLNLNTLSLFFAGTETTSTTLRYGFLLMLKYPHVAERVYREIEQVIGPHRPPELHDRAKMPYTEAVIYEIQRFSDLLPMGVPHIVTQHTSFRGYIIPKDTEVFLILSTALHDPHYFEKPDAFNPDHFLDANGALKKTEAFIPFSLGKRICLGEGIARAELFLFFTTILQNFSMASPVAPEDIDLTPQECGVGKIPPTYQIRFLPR
# [4] = Prototype oral formulation preparation and physico-chemical characterization (Example 2); type: physicochemical; settings: powder in bottle compositions
# Description: Suitable formulation methodologies such as direct compression, dry compaction, and/or wet granulation processes were evaluated.
# Powder in bottle (PIB) is one of the most convenient dosage form used in early stage clinical development because of its ease of use. In comparison with capsules, PIB can carry large dose and fill weights. […] The reason for evaluating each composition is also described. […] TABLE 2.14 describes the corresponding properties of the evaluated formulations.
# TABLE 2.16 describes the corresponding properties of the evaluated formulations.
# Chewable tablets are formulated for use in the mouth. They are usually uncoated, and are formulated to provide a release and absorption of the active ingredient(s) in the mouth/buccal cavity or from stomach. […] TABLE 2.18 describes the corresponding properties of the evaluated formulations.
# Various compositions and processes (Direct compression & Wet granulation) were evaluated to formulate conventional tablets with 1000, 750 and/or 500 mg drug load. […]
# [5] = Distribution coefficient measurement; type: physicochemical; settings: for Dow / Log(Dow): listed as 3,4,3-LI(1,2-HOPO)
# [6] = Buffering Agent 1: 7.5 E−02 M HCl, pH 1.18, samples A11-A13
# [7] = Buffering Agent 1: 7.5 E−02 M HCl, pH 1.20, samples B11-B13
# [8] = Buffering Agent 2: 7.5 E−03 M HCl, pH 2.15, samples A11-A13
# [9] = Buffering Agent 2: 7.5 E−03 M HCl, pH 2.16, samples B11-B13
# [10] = Buffering Agent 3: 7.5 E−04 M HCl, pH 3.21, samples A31-A33
# [11] = Buffering Agent 4: 1 E−02 M Acetic Acid, pH 4.19, samples A41-A43
# [12] = Buffering Agent 5: 1 E−02 M Acetic Acid, pH 5.13, samples A51-A53
# [13] = Buffering Agent 5: 1 E−02 M Acetic Acid, pH 5.20, samples B51-B53
# [14] = Buffering Agent 6: 1 E−02 M MES, pH 6.30, samples A61-A63
# [15] = Buffering Agent 7: 1 E−02 M HEPES, pH 6.75, samples A71-A73
# [16] = Buffering Agent 8: 1 E−02 M HEPES, pH 7.42, samples A81-A83
# [17] = Buffering Agent 9: 1 E−02 M HEPES, pH 8.00, samples A91-A93
compound,measurement,setting,value
"O=C(NCCCN(CCCCN(CCCNC(=O)c1cccc(=O)n1O)C(=O)c1cccc(=O)n1O)C(=O)c1cccc(=O)n1O)c1cccc(=O)n1O [3,4,3-L1(1,2-HOPO)]",stability in gastric fluid,[1],degraded slightly
same,"electrocardiographic, heart rate, or blood pressure findings",[2],"no electrocardiographic, heart rate, or blood pressure findings"
same,inhibition of CYP2B6 activity,[3],did not inhibit
same,behavior when reconstituted in water,[4],formed a sticky mass
same,Dow,[5]; [6],0.122 and 0.115 and 0.112
same,Log(Dow),[5]; [6],−0.915 and −0.938 and −0.952
same,"Log(Dow), unlabelled summary row (mean of samples)","[5]; Buffering Agent 1: 7.5 E−02 M HCl, pH 1.18, series A",−0.935
same,Dow,[5]; [7],0.318 and 0.327 and 0.285
same,Log(Dow),[5]; [7],−0.497 and −0.485 and −0.545
same,"Log(Dow), unlabelled summary row (mean of samples)","[5]; Buffering Agent 1: 7.5 E−02 M HCl, pH 1.20, series B",−0.509
same,Dow,[5]; [8],0.093 and 0.105 and 0.110
same,Log(Dow),[5]; [8],−1.031 and −0.980 and −0.958
same,"Log(Dow), unlabelled summary row (mean of samples)","[5]; Buffering Agent 2: 7.5 E−03 M HCl, pH 2.15, series A",−0.990
same,Dow,[5]; [9],0.503 and 0.491 and 0.469
same,Log(Dow),[5]; [9],−0.299 and −0.309 and −0.329
same,"Log(Dow), unlabelled summary row (mean of samples)","[5]; Buffering Agent 2: 7.5 E−03 M HCl, pH 2.16, series B",−0.312
same,"Log(Dow), unlabelled summary row (mean of samples)","[5]; Buffering Agent 3: 7.5 E−04 M HCl, pH 3.13, series B",−1.499
same,Dow,[5]; [10],0.180 and 0.170 and 0.184
same,Log(Dow),[5]; [10],−0.744 and −0.769 and −0.735
same,"Log(Dow), unlabelled summary row (mean of samples)","[5]; Buffering Agent 3: 7.5 E−04 M HCl, pH 3.21, series A",−0.750
same,"Log(Dow), unlabelled summary row (mean of samples)","[5]; Buffering Agent 4: 1 E−02 M Acetic Acid, pH 4.00, series B",−1.566
same,Dow,[5]; [11],0.076 and 0.061 and 0.068
same,Log(Dow),[5]; [11],−1.119 and −1.218 and −1.166
same,"Log(Dow), unlabelled summary row (mean of samples)","[5]; Buffering Agent 4: 1 E−02 M Acetic Acid, pH 4.19, series A",−1.168
same,Dow,[5]; [12],0.044 and 0.027 and 0.050
same,Log(Dow),[5]; [12],−1.360 and −1.564 and −1.299
same,"Log(Dow), unlabelled summary row (mean of samples)","[5]; Buffering Agent 5: 1 E−02 M Acetic Acid, pH 5.13, series A",−1.408
same,Dow,[5]; [13],0.056 and 0.082 and 0.103
same,Log(Dow),[5]; [13],−1.251 and −1.086 and −0.989
same,"Log(Dow), unlabelled summary row (mean of samples)","[5]; Buffering Agent 5: 1 E−02 M Acetic Acid, pH 5.20, series B",−1.109
same,Log(Dow),"[5]; Buffering Agent 6: 1 E−02 M MES, pH 6.15, samples B61-B63",−1.374 and −1.645
same,"Log(Dow), unlabelled summary row (mean of samples)","[5]; Buffering Agent 6: 1 E−02 M MES, pH 6.15, series B (B61 prints #NUM!)",−1.510
same,Dow,[5]; [14],0.064 and 0.077 and 0.082
same,Log(Dow),[5]; [14],−1.191 and −1.113 and −1.086
same,"Log(Dow), unlabelled summary row (mean of samples)","[5]; Buffering Agent 6: 1 E−02 M MES, pH 6.30, series A",−1.130
same,Dow,[5]; [15],0.150 and 0.120 and 0.105
same,Log(Dow),[5]; [15],−0.824 and −0.921 and −0.977
same,"Log(Dow), unlabelled summary row (mean of samples)","[5]; Buffering Agent 7: 1 E−02 M HEPES, pH 6.75, series A",−0.908
same,"Log(Dow), unlabelled summary row (mean of samples)","[5]; Buffering Agent 7: 1 E−02 M HEPES, pH 6.83, series B",−1.680
same,Dow,[5]; [16],0.130 and 0.132 and 0.107
same,Log(Dow),[5]; [16],−0.885 and −0.879 and −0.970
same,"Log(Dow), unlabelled summary row (mean of samples)","[5]; Buffering Agent 8: 1 E−02 M HEPES, pH 7.42, series A",−0.912
same,"Log(Dow), unlabelled summary row (mean of samples)","[5]; Buffering Agent 8: 1 E−02 M HEPES, pH 7.46, series B",−1.173
same,Dow,[5]; [17],0.110 and 0.074 and 0.132
same,Log(Dow),[5]; [17],−0.957 and −1.128 and −0.879
same,"Log(Dow), unlabelled summary row (mean of samples)","[5]; Buffering Agent 9: 1 E−02 M HEPES, pH 8.00, series A",−0.988
same,"Log(Dow), unlabelled summary row (mean of samples)","[5]; Buffering Agent 9: 1 E−02 M HEPES, pH 8.00, series B",−1.920
